Laboratory results as given in patent publication US20050239720A1, “Combination of an agent that attenuates topoisomerase 1 activity and an agent that inhibits heat shock protein 90 for use in chemotherapy” (UNIVERSITY OF LIVERPOOL Senate House, priority 2002, published 2005).

System: HCT116 p53 WT cells and p53 KO cells
Experiment: Growth inhibition assay (sulforhodamine B)
Format: cell-based, human
Details: single drug alone; HCT116 p53 WT and p53 knockout cells; FIG. 4 and FIG. 5
Procedure: The isogenic p53 human colon cancer cell line (WT and KO), HCT116 (see Hwang et al. Nat Med 2001 November 7(11):1255). Cells were maintained in McCoys 5A medium (Sigma) supplemented with 10% foetal calf serum (Gibco) at 37° C. in a 5% CO2 enriched humidified environment, Penicillin and Streptomycin. 96 well flat-bottomed plates were seeded with 3×10^3 cells per well and allowed to adhere overnight. Media was then replaced with fresh media alone (control) or containing test drugs e.g. 0-100 μM irinotecan, 50 to 200 nM geldanamycin (GA) and combinations of both. At fixed time points, cells were fixed with 3:1 methanol:acetic acid and stained with 0.4% w/v sulforhodamine B (Sigma) in 1% v/v acetic acid for 30 minutes. Plates were then washed twice with 1% v/v acetic acid, the dye solubilised with 100 μl per well of 10 mM Tris pH 10.4 and read at […] using a Benchmark microplate reader (BioRad). Drugs were used in the following concentrations for Growth inhibition and Clonogenic assays: [table]

CCc1c2c(nc3ccc(OC(=O)N4CCC(N5CCCCC5)CC4)cc13)-c1cc3c(c(=O)n1C2)COC(=O)[C@]3(O)CC [Irinotecan]
effect on cell growth: inhibitory effects

COC1=C2C[C@@H](C)C[C@H](OC)[C@H](O)[C@@H](C)/C=C(\C)[C@H](OC(N)=O)[C@@H](OC)/C=C\C=C(/C)C(=O)NC(=CC1=O)C2=O [Geldanamycin]
effect on cell growth: inhibitory effects
